Read-outs that look alike come from different tables or passages of the source. *1 amine or outer side, *2 acyl side, *3 side chain or, on linkers, in order; H or OH if unused. Where a SMILES comes first, the peptide text is derived from it. Bridges are numbered along the chain shown (N, C = ends). [ ]: non-standard residue; d: D form. NHCH2CMe2S = CC(C)(CN[*:1])S[*:2]
Legend:
[1] = target: DOP (Homo sapiens, UniProt P41143); assay: cAMP assay with naloxone in HEK-DOP cells; format: cell-based; conditions: naloxone 100 μM/well; for Mean cAMP response with naloxone: HEK-DOP, peptide at approximate IC80; for Naloxone reversal of cAMP inhibition through DOP: p<0.05
Sequence of DOP (P41143 whole entry): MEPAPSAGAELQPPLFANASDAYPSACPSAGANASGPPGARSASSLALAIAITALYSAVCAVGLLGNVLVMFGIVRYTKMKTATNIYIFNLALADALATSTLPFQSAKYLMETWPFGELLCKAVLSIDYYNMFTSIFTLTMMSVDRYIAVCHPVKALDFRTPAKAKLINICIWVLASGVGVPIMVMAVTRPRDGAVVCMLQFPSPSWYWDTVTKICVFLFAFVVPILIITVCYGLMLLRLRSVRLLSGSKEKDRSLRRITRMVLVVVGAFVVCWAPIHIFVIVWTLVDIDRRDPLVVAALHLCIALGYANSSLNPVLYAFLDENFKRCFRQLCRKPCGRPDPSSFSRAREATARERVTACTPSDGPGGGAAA
Experimental: The preparation of buffers, cAMP standard curve, bead solutions were carried out identically to the agonist assay.
Forskolin had been optimised at 50 μM/well. Thus, the 25 mM stocks were used to prepare 300 μL of 0.3 mM Forskolin. The concentration of Forskolin prepared was 6 times the required concentration in the well to account for further dilution in the well. Forskolin solution was then made from this and used to dilute the drug solutions.
Approximate IC80 values were used for DP-7-11 and DP-7-12 to determine the ability of naloxone to reverse agonist inhibitory effect.
The desired concentration of naloxone was 100 μM/well. Thus, 100 μL of 600 μM naloxone was made up from 100 mM stock. This was 6 times the desired in-well concentration to account for further dilution in the well by Forskolin, peptide, cells and acceptor bead solutions.
Stimulation buffer was added to the 0.3 mM Forskolin solution to prepare the Forskolin only treatment solution as the positive control. Stimulation buffer used as the negative control.
The DP series compounds were assayed as follows: The different cAMP standard solutions (3 μL/well) were plated in duplicate. Naloxone solution was then plated (1 μL/well) for each treatment (DP-7-11, DP-7-12, Forskolin only and stimulation buffer) in triplicate. In the same way, stimulation buffer was plated (1 μL/well) for the same number of wells. This made up two sets of wells, antagonist and non-antagonist. Following this, the acceptor bead and cell mixture (3 μL/well) was added to the treatment wells. The plates were then covered and centrifuged at 280 g for 30 seconds before incubation on an orbital shaker for 30 minutes at room temperature. The acceptor bead mixture (3 μL/well) was then added to the cAMP standard curve wells, whilst the drug mixed with Forskolin solutions (3 μL/well) were added to the respective treatment wells in triplicate. Again, the plates were centrifuged at 280 g for 30 seconds, then covered and incubated on the orbital shaker for another 30 minutes. Finally, the donor bead mixture (10 μL/well) was added to each well. This was incubated at room temperature overnight on the orbital shaker.
The Ensight® Multimode Plate Reader was used to quantify the fluorescence units of each plate. Before reading, each plate was centrifuged at 280 g for 30 seconds. Using GraphPad Prism7® Software, cAMP concentrations were determined from the fluorescence data by fit spline/LOWESS analysis. The cAMP standard curve was used for interpolation at this point. The cAMP concentrations were then normalized to the highest cAMP concentration recorded and analyzed by one-way ANOVA for multiple comparisons. This analysis was corrected for multiple comparisons using Bonferroni. […]

[2] = Serum stability; format: in vitro ADME; conditions: rat
Experimental: Purified DP-7-11 (1 mg/mL) was dissolved in 0.1 M ammonium bicarbonate (NH4HCO3) buffer. To prepare a stock trypsin solution, 1 mg trypsin was dissolved in 50 mL of 0.1 M NH4HCO3 buffer. Equal volumes of the stock trypsin solution (62.5 μL) and DP-7-11 solution (62.5 μL) were incubated in 375 μL of 0.1M NH4HCO3 buffer in a 37° C. water bath. Aliquots of 100 μL were collected from this mixture at set time intervals of 0 min, up to 24 hours. Ice-cold acetonitrile containing 0.5% TFA was used to quench the reaction between DP-7-11 and trypsin at predetermined intervals, and just prior to HPLC or LC-MS analysis. The quenched samples were vortexed for 10 minutes followed by centrifugation at 12,000 rpm for a further 15 minutes. Supernatant was sampled and analysed using analytical RP-HPLC or LC-MS. Samples without trypsin acted as negative controls and were sampled at two intervals of 0 hour and 6 hours.
Serum stability of DP-7-11 was also performed. In this regard, rat serum replaced trypsin and NH4HCO3 buffer. Water was used as negative control in place of serum, with the stability study performed in an identical fashion to the trypsin study. […] DP-11-00 and DP-11-06 were tested in a similar manner.
As used in this serum and trypsin stability discussion, the term ‘degraded completely’ relates to the relevant compound being completely absent when tested. In other words, the compound being tested is not observed when tested.
This appears to indicate the improved metabolic stability of the present invention.
The serum and trypsin stability of DP-7-11 and DP-7-12 were tested (in some instances again) using LC-MS. The LC-MS utilized in this study was more sensitive than the LC-MS utilized in the above tests.

CC1(C)CNC(=O)C[C@H](C(=O)N[C@@H](CCCNC(=N)N)C(=O)N[C@@H](CCCNC(=N)N)C(N)=O)NC(=O)[C@H](Cc2ccccc2)NC(=O)CNC(=O)[C@@H](NC(=O)[C@@H](N)Cc2ccc(O)cc2)CSS1 [DP-7-11, c(Tyr-SSa-Gly-Phe-D(Asp)-Arg-Arg)]
Mean cAMP response with naloxone [1]: 77.18%
Naloxone reversal of cAMP inhibition through DOP [1]: reversed by naloxone
half-life at 0.125 mg/mL ([2]; 37° C., LC-MS (Table 8), read-out: Serum half-life (converted)): 6 h
half-life at 0.125 mg/mL ([2]; more sensitive LC-MS (Table 8a), read-out: Incubation in serum: half life): > 6 h
metabolised at 6 h, 0.125 mg/mL ([2]; up to 6 h, more sensitive LC-MS, read-out: Degradation in serum): ~10%

CC1(C)CNC(=O)C[C@@H](NC(=O)[C@@H](N)Cc2ccc(O)cc2)C(=O)NCC(=O)N[C@@H](Cc2ccccc2)C(=O)N[C@H](C(=O)N[C@@H](CCCNC(=N)N)C(=O)N[C@@H](CCCNC(=N)N)C(N)=O)CSS1 [DP-7-12, c(Tyr-D(Asp)-Gly-Phe-SSa-Arg-Arg)] (H-Y[dD]GFCRR-NH2; linker 2-5 via NHCH2CMe2S)
Mean cAMP response with naloxone [1]: 62.68%
Naloxone reversal of cAMP inhibition through DOP [1]: reversed by naloxone
remaining at 1 h, 0.125 mg/mL ([2]; after 1 hr, read-out: Peptide still present in serum): ~67%
remaining at 2 h, 0.125 mg/mL ([2]; after 2 hours, read-out: Peptide still present in serum): ~20%
half-life at 0.125 mg/mL ([2]; more sensitive LC-MS (Table 8a), read-out: Incubation in serum: half-life): ~0.75 h

— patent US20220089646A1 (THE UNIVERSITY OF QUEENSLAND, priority 2019, published 2022)
